Results from article PMC3260434 (Journal of Molecular Neuroscience, 2011).
No end group written: not given here.

Columns and labels:
[1] = test system: primary neuronal cell cultures from rat cerebral cortex; assay: Assay of cyclic AMP formation; type: cell-based; settings: for Increase in cyclic AMP production over the basal level: forskolin 1 μM, PACAP27 0.1 μM, VIP 3 μM, rat neuronal cell cultures
[2] = test system: astrocyte cultures from rat cerebral cortex; settings: ref Woldan-Tambor et al. [2011]; cited from earlier work
OX2R = settings: heterologous expression systems; ref Sakurai et al. [1998]; Ammoun et al. [2003]; cited from earlier work

| Compound | Increase in cyclic AMP production over the basal level [1] | other results |
| --- | --- | --- |
| C=C[C@@]1(C)CC(=O)[C@]2(O)[C@@]3(C)[C@@H](O)CCC(C)(C)[C@@H]3[C@H](O)[C@H](OC(C)=O)[C@@]2(C)O1 [forskolin] | three- to fivefold over the basal level | – |
| VIP: vasoactive intestinal peptide (human, porcine, and rat) (HSDAVFTDNYTRLRKQMAVKKYLNSILN; ends and bridges not checked; UniProt P01282 125-152, looked up) | three- to fivefold over the basal level | – |
| orexin A: neuropeptide, an agonist of OX1R and OX2R; from NeoMPS (QPLPDCCRQKTCSCRLYELLHGAGNHAAGILTL; ends and bridges not checked; cysteine pairing not given here; UniProt O43612 34-66, looked up) | – | Effect on cyclic AMP synthesis in astrocyte cultures [2]: stimulatory effect |
| PACAP27 | three- to fivefold over the basal level | – |
| orexin B: neuropeptide derived from preproorexin; literature affinity only | – | Affinity of OX2R for orexins A and B (OX2R): equal affinity |
| [Ala^11-D-Leu^15]orexin B | – | Effect on basal cyclic AMP accumulation ([1]; 0.001–1 μM, cultured rat cortical neurons, data not shown): No significant effects |
